The subject of data set [1] is lumbar intervertebral joints (posterior annulus). The experiment in a line: Indentation testing (stress relaxation, hardness) with compression/flexion fatigue cycling. The note with it: soaking the calf disc tissue in 0.33% concentration of genipin. An excerpt:
Thirty-three lumbar intervertebral joints were obtained from ten four-month-old calf spines. The intervertebral joints were arbitrarily divided into 3 groups: untreated controls-12 specimens, Genipin treatment 1 (G1)-6 specimens, and Genipin treatment 2 (G2)-13 specimens. The G1 treatment involved 72 hrs of soaking the whole specimen in PBS with a 0.033% concentration of Genipin. Similarly, the G2 treatment involved 72 hrs of soaking whole specimens in PBS with 0.33% concentration of Genipin. 0.33% Genipin in PBS is produced by dilution of 50 ml of 10×. PBS (Phosphate Buffered Saline) with distilled water by a factor of 10 to give 500 ml (500 gm) of PBS and mixing in 1.65 grams of genipin to produce the 0.33% (wt %, gm/gm) solution. […] Some controls were not subjected to soaking prior to fatigue testing. Others were soaked in a saline solution for 72 hrs. Water mass loss experiments were conducted to establish the equivalency of outer annulus hydration between the genipin soaked and 0.9% saline soaked controls. The selection of treatments was randomized by spine and level. […]
Following initial indentation testing, the specimen was loaded repetitively in flexion-compression at 200 N for 3000 cycles at a rate of 0.25 Hz. […] Several statistical measures were calculated to evaluate the significance of the results. […]

Data set [2] has as its system annulus fibrosus specimens from bovine lumbar intervertebral discs. The experiment in a line: Tear resistance of annulus fibrosus (radial tear propagation). The following applies: soaked two days in 0.15M PBS plus 0.33% genipin. An excerpt:
Ten annulus fibrosus circumferentially aligned specimens from bovine lumbar (T12-L5) intervertebral discs were divided into two groups and either soaked two days in a 0.15M PBS or a 0.15M PBS plus 0.33% genipin solution. A custom loading fixture attached to a uniaxial materials testing system was designed to hold an annulus specimen perpendicular to the travel of a metal cylinder placed in a pre-existing radial cut. The cylinder was then pulled radially (perpendicular to lamellae) towards the external layer. Time dependent force and displacement data was acquired simultaneously. Tearing resistance was quantified in two ways: peak force normalized by specimen thickness and tearing energy per area of tear. Differences between groups were analyzed using the Mann-Whitney non-parametric test.

The test system of data set [3] is calf lumbar spinal discs. The experiment in a line: Diffusion study in calf lumbar spinal discs (area of diffusion zone, ImageJ). The note with it: 0.1% (w/v) SDS in PBS, 1 hr, 37° C.; p=0.021. The procedure:
FIG. 12—Diffusion kinetics of genipin and BSA in calf lumbar spinal discs. 200 μl of 0.33% (w/v) or 1 mg/ml BSA-Texas Red were injected at a depth of 1 cm into the discs of individual calf lumbar motion segments and incubated for 1, 3 or 6 hours at 37° C. Samples were transected and the area of each diffusion zone at each time point and for each reagent was determined from photographs using ImageJ software.
FIG. 13—Effect of surfactants on the diffusion of GP and BSA-TR. 200 μl of 0.33% (w/v) or 1 mg/ml BSA-Texas Red formulated in PBS in the absence of presence of 0.1% (w/v) of either Tween-20 or SDS were injected at a depth of 1 cm into the discs of individual calf lumbar motion segments. Segments were incubated for 1 hr at 37° C. and the samples were then transected and the area of each diffusion zone determined from photographs using ImageJ software.
In order to observe the diffusion kinetics of these markers, GP (0.33% (w/v)) or BSA-TR (1 mg/ml) were dissolved in PBS and 200 μl injected at a depth of 1 cm into the discs of individual calf lumbar motion segments and incubated at 37° C. for 1, 3 or 6 hrs in sealed ZipLoc bags containing a sheet of paper towel moistened with H2O. […] In some cases, however, diffusion zones merged and were not possible to quantify and in subsequent experiments injections were limited to the left and right lateral regions. […]

The subject of data set [4] is homogenized annulus tissue. The following applies: bovine.
Procedure: (§1) Increasing concentrations of protein crosslinkers were added to homogenized annulus tissue and incubated for either 1 hr (EDC, GP, MG, PA and GA), 2 hrs (TG) or 6 hrs (DT and LT). Crosslinking was quantified by determining the amount of hydroxyproline (HYP) released from the tissue by collagenase digestion.
(§2) Homogenized annulus tissue was treated with sub-saturating concentrations of various crosslinkers at varying pH and incubated for either 1 hr (EDC, GP, MG, PA and GA), 2 hrs (TG) or 6 hrs (LT). Crosslinking was quantified by determining the amount of hydroxyproline (HYP) released from the tissue by collagenase digestion.
(§3) In order to determine the effective concentration range for various crosslinking reagents we incubated samples of annulus tissue in increasing concentrations of either genipin (GP), methylglyoxal (MG), proanthrocyanidin (PA), L-threose (LT), D-threose (DT), dimethylaminopropyl) carbodiimide hydrochloride (EDC) or transglutaminase (TG). Crosslinking efficiency was measured indirectly by monitoring the release of peptides containing hydroxyproline upon subsequent digestion with collagenase. Glutaraldehyde (GA), a commonly used, but highly toxic protein crosslinker was used as a positive control.
(§4) To test this hypothesis, the inventors subjected calf annulus fibrosus tissue to crosslinking with sub-saturating levels of our reagents at varying pH. In order to maintain optimal buffering capacity at each pH, different buffers were selected for each point.
The test system of data set [5] is homogenized annulus tissue. The experiment in a line: Crosslinking of annulus tissue quantified by hydroxyproline release upon collagenase digestion.
Procedure: as §1, §2, §3, §4

With `COC(=O)C1=CO[C@@H](O)[C@@H]2C(CO)=CC[C@H]12` [Genipin, genipin], in data set [1], the “reduction in viscoelastic degradation” value is recorded as “More than a three-fold reduction”. For the same compound, the “Total energy per area of tear” value in data set [2] (p=0.047 vs control) is given as 40.2 mJ/mm^2. Moreover, in data set [2] (p=0.076 vs control), the Normalized peak force is 42.7 N/mm. For the same compound, the “enhancement of diffusion by SDS” value in data set [3] was “approximately 30%”. The same compound yielded a T1/2 in data set [4] of 10 to 18 min. For the same compound, the “effect of buffer (EPPS vs Tris) on crosslinking” value in data set [5] (100 mM EPPS or 100 mM Tris, GP at pH 9) is on record as “more effective in EPPS buffer than in Tris”. Further, in data set [5] (Tris buffer pH 8, increasing concentrations of sodium phosphate), the “effect of phosphate on crosslinking” value is given as “dose-dependent enhancement”. Also, the pH in data set [5] (optimized pH for crosslinking, Table 5) is recorded as 8-9. For the same compound, the “[Saturating]” value in data set [5] (saturating crosslinker concentration, Table 5) was in the range of 5 to 10 mM. Also, the “pH dependence of crosslinking” value in data set [5] (sub-saturating crosslinker, pH 4-9 with a different buffer at each pH (FIG. 2, FIG. 3)) is given as “function better in disc tissue at the higher pH levels”.

The values are drawn from patent publication US8283322B2, “Formulations for nonsurgical exogenous crosslink therapy” (Orthopeutics, LP, priority 2008, dated 2012).
